Among the data in US20240124467A1, “FUSED PYRIMIDINE COMPOUNDS AS INHIBITORS OF MENIN-MLL INTERACTION” (Biomea Fusion, Inc., priority 2020, published 2024) are IC50 values, retold here.

Type in all cases: cell-based
Assay [1] concerns MOLM-13. The assay can be described thus: Cell proliferation inhibition (CellTiter-Glo), MOLM-13 cells. The settings on record: Homo sapiens, MOLM-13 (MLL-AF9). On the procedure:
(§1) The present example evaluates the ability of compounds described herein, inhibitors of Menin/MLL interaction, to inhibit cell proliferation. The proliferation inhibitory effect was investigated in human MLL-leukemia cells selected on the bases of MLL fusion proteins and listed in the table below.
(§2) ATP is present in all metabolically active cells and is considered as a marker for cell viability and proliferation. The metabolic cell activity was determined using the CellTiter-Glo kit from Promega, an ATP monitoring system based on the production of luminescence by the reaction of ATP with added UltraGlo® recombinant luciferase (Kawano et al., 2016, PLOS One, 8:11(7):e0158888), according to the supplier's experimental recommendations. The assay is based on a 96 well plate format. All experiments were carried out in duplicate in one test occasion.
(§3) Test items were dissolved at 20 mM in DMSO with purity ≥99.9% (Sigma catalog no. D8418) and stored at −20° C. Cells were maintained in RPMI-1640 medium (Invitrogen catalog no. 618700) supplemented with 10% of Heat Inactivated FBS (Invitrogen catalog no. 10500) and 1% Pen-Strep (Invitrogen catalog no. 15140) and cultured at 37° C. in a humidified incubator with 5% CO2. Cell lines were grown in suspension and the cell density was maintained in a range of 5×10^4-1×10^6 viable cells/ml where possible. Cells were pelleted at 130 g×5 min.
(§4) Serial dilutions of compounds 1 to 3 in DMSO 100% were prepared starting from a 2.5 mM solutions (prepared by diluting 1:8 the 20 mM stock solution) to generate a 7 point concentration response curve (CRC). Seven concentrations of test compounds (e.g., 5.00×10^−6-1.67×10^−6-5.56×10^−7-1.85×10^−7-6.17×10^−8-2.06×10^−8-6.86×10^−9 M) were assessed in duplicate in an individual test occasion in parallel in the selected cell lines. KO-539 was used as a reference compound and tested in duplicate at seven similar concentrations. 100% of proliferation was represented by the untreated cells (0.2% DMSO).
(§5) Cell proliferation inhibition was monitored at both the following end points: Day 4 (T4) and Day 7 (T7). For the appropriate cell density during the exponential cell growth and re-supply with fresh compound solution at T4, cells were diluted (1:4) with fresh medium containing the compound concentration (1×).
(§6) For each plate to test, one 0.4 μL copy plate and four 0.3 μL copy plates were stamped into 96-well plates not treated for cell adhesion (Sarstedt—cat. no. 82.1581.001) by acoustic liquid handling (Echo) at a concentration which was 500 fold the final assay concentration. Stamped plates were stored at −20° C.
(§7) On Day 0, the day of the experiment cell line suspensions were counted by Cell Viability Analyser, Vi-CELL (Beckman Coulter AY15292), and diluted with fresh medium to obtain the following cell densities: K-562 500 c/ml, MOLM-13 1,000 c/ml, MV4-11 10,000 c/ml, OCI-AML-3 500 c/ml, and U-937 500-1,000 c/ml. 200 μL/well and 150 μL/well of cell suspension were added into the 0.4 μL/well and 0.3 μL/well compound plates, respectively. Cell plate containing 200 μL/well suspension were incubated at 37° C. in a humidified incubator with 5% CO2. From each well of the 150 μL/well cell assay plate, 100 μL were harvested and transferred into a 96-well Optiplate (Perkin Elmer, cat. no. 6005290). Cell viability was measured as described below.
(§8) On Day 4, 150p/well of fresh medium was added into a new 0.3 μL/well copy compound plates. From each well of the 200 μL/well cell assay plate, 100 μL was sampled for the cell viability measurement as described below. 50p was harvested and added to the 150p/well compound plate prepared as described in the first point to dilute 1:4 the cell suspension. The cell assay plate diluted and containing 200 μL/well suspension was incubated at 37° C. in a humidified incubator with 5% CO2.
(§9) On Day 4, 150p/well of fresh medium was added into a new 0.3 μL/well copy compound plates. […]
In general terms: In ATP-based viability assays light output follows the ATP content of the culture.

In assay [2] the test system is MV4-11. The assay can be described thus: Cell proliferation inhibition (CellTiter-Glo), MV4-11 cells. The settings on record: Homo sapiens, MV4-11 (MLL-AF4). On the procedure:
as §1, §2, §3, §4, §5, §6, §7, §8, §9

The test system of assay [3] is K-562. The experiment in a line: Cell proliferation inhibition (CellTiter-Glo), K-562 cells. The settings on record: Homo sapiens, K-562 (BCR-ABL). The protocol:
as §1, §2, §3, §4, §5, §6, §7, §8, §9

Where [4] appears, read: 96 h, Day 4, read-out: MOLM-13 Day IC50 μM (Day 4)*.
Where [5] appears, read: 96 h, Day 4, read-out: MV-4:11 IC50 μM (Day 4)*.
The mark [6] stands for this setting: K562, 96 h, Day 4, read-out: K-562 IC50 μM (Day 4).
The mark [7] stands for this setting: 168 h, Day 7, read-out: MOLM-13 Day IC50 μM (Day 7)*.
Setting [8] is: 168 h, Day 7, read-out: MV-4:11 IC50 μM (Day 7)*.
[9] abbreviates: K562, 168 h, Day 7, read-out: K-562 IC50 μM (Day 7)*.

Where two headings read alike, the source gives them in different places.

In the case of `C=CC(=O)N[C@@H]1CCCN(C(=O)c2ccnc(CNc3ccc(-c4cc5c(N6CCOCC6)ncnc5[nH]4)cc3)c2)C1` [Compound B0700-561, (R)—N-(1-(2-(((4-(4-morpholino-7H-pyrrolo[2,3-d]pyrimidin-6-yl)phenyl)amino)methyl)isonicotinoyl)piperidin-3-yl)acrylamide], the values for the half-inhibitory concentration (IC50) in assay [1] (setting [4]), in assay [2] (setting [5]) and in assay [3] (setting [6]) were 1.63 µM, 0.304 µM and over 10 µM, respectively.
On the same counts, the results for `C=CC(=O)N[C@H]1CCCN(c2cccc(C(C)S(=O)(=O)Nc3ccc(-c4cc5c(N6CCOCC6)ncnc5[nH]4)cc3)c2)C1` (stereo partly drawn) [Compound B0700-565] are 1.03 µM, 0.274 µM and over 10 µM.
Take `C=CC(=O)N[C@@H]1CCCN(Cc2ccnc(C(=O)Nc3ccc(-c4cc5c(N6CCC(O)CC6)ncnc5[nH]4)cc3)c2)C1` [Compound B0700-568]: the half-maximal inhibitory concentration (IC50) was 0.495 µM in assay [1] (setting [4]); 0.924 µM in assay [1] (setting [7]); 0.419 µM in assay [2] (setting [5]); 0.34 µM in assay [2] (setting [8]); over 10 µM in assay [3] (setting [6]); over 10 µM in assay [3] (setting [9]).
Turning to `C=CC(=O)N[C@@H]1CCCN(Cc2ccnc(C(=O)Nc3ccc(-c4cc5c(N6CCC(C)(O)CC6)ncnc5[nH]4)cc3)c2)C1` [Compound B0700-569], the IC50 in assay [1] (setting [4]) is 0.492 µM; in assay [1] (setting [7]), 1.07 µM; in assay [2] (setting [5]) it was 0.318 µM; in assay [2] (setting [8]) it was 0.37 µM; in assay [3] (setting [6]), over 10 µM; in assay [3] (setting [9]), 9.87 µM.
On to `[2H]C1([2H])OC([2H])([2H])C([2H])([2H])N(c2ncnc3[nH]c(-c4ccc(NC(=O)c5cc(CN6CCC[C@@H](NC(=O)C=C)C6)ccn5)cc4)cc23)C1([2H])[2H]` [Compound B0700-601, (R)-4-((3-acrylamidopiperidin-1-yl)methyl)-N-(4-(4-(morpholino-d8)-7H-pyrrolo[2,3-d]pyrimidin-6-yl)phenyl)picolinamide], for which the results for the IC50 in assay [1] (setting [4]), in assay [2] (setting [5]) and in assay [3] (setting [6]) were 0.282 µM, 0.397 µM and over 10 µM, respectively.
Regarding `C=CC(=O)N[C@@H]1CCC[C@H](Nc2ccnc(C(=O)Nc3ccc(-c4cc5c(N6CCOCC6)ncnc5[nH]4)cc3)c2)C1` [Compound B0700-607, 4-(((1S,3R)-3-acrylamidocyclohexyl)amino)-N-(4-(4-morpholino-7H-pyrrolo[2,3-d]pyrimidin-6-yl)phenyl)picolinamide], the IC50 is 0.202 µM in assay [1] (setting [4]); 0.349 µM in assay [1] (setting [7]); 0.398 µM in assay [2] (setting [5]); 0.43 µM in assay [2] (setting [8]); 2.96 µM in assay [3] (setting [6]); 3.47 µM in assay [3] (setting [9]).
As to `C=CC(=O)N1CCCC(N2CC[C@@H](C(=O)Nc3ccc(-c4cc5c(N6CCOCC6)ncnc5[nH]4)cc3)C2)C1` (stereo partly drawn) [Compound B0700-608, (3R)-1-(1-acryloylpiperidin-3-yl)-N-(4-(4-morpholino-7H-pyrrolo[2,3-d]pyrimidin-6-yl)phenyl)pyrrolidine-3-carboxamide], the IC50 in assay [1] (setting [4]) amounted to 0.197 µM; in assay [1] (setting [7]) it was 0.164 µM; in assay [2] (setting [5]), 0.138 µM; in assay [2] (setting [8]) it was 0.1 µM; in assay [3] (setting [6]), 2.19 µM; in assay [3] (setting [9]), 3.65 µM.
Consider `C=CC(=O)N1CCC(N2CCC(S(=O)(=O)Nc3ccc(-c4cc5c(N6CCOCC6)ncnc5[nH]4)cc3)CC2)CC1` [Compound B0700-610, 1′-acryloyl-N-(4-(4-morpholino-7H-pyrrolo[2,3-d]pyrimidin-6-yl)phenyl)-[1,4′-bipiperidine]-4-sulfonamide], for which the IC50 is 0.806 µM in assay [1] (setting [4]); 0.458 µM in assay [1] (setting [7]); 0.487 µM in assay [2] (setting [5]); 0.29 µM in assay [2] (setting [8]); over 10 µM in assay [3] (setting [6]); over 10 µM in assay [3] (setting [9]).
As to `C=CC(=O)N1CCCC(N2CCC(S(=O)(=O)Nc3ccc(-c4cc5c(N6CCOCC6)ncnc5[nH]4)cc3)C2)C1` (stereo not drawn) [Compound B0700-611, 1-(1-acryloylpiperidin-3-yl)-N-(4-(4-morpholino-7H-pyrrolo[2,3-d]pyrimidin-6-yl)phenyl)pyrrolidine-3-sulfonamide], the concentration for half-maximal inhibition (IC50) in assay [1] (setting [4]) was 0.963 µM; in assay [1] (setting [7]), 0.834 µM; in assay [2] (setting [5]) it was 0.629 µM; in assay [2] (setting [8]), 0.38 µM; in assay [3] (setting [6]), over 10 µM; in assay [3] (setting [9]), over 10 µM.
Turning to `C=CC(=O)N1CCC(N2CCN(S(=O)(=O)Nc3ccc(-c4cc5c(N6CCOCC6)ncnc5[nH]4)cc3)CC2)CC1` [Compound B0700-612, 4-(1-acryloylpiperidin-4-yl)-N-(4-(4-morpholino-7H-pyrrolo[2,3-d]pyrimidin-6-yl)phenyl)piperazine-1-sulfonamide], the half-maximal inhibitory concentration (IC50) is 2.85 µM in assay [1] (setting [4]); 2.39 µM in assay [1] (setting [7]); 1.4 µM in assay [2] (setting [5]); 1.14 µM in assay [2] (setting [8]); over 10 µM in assay [3] (setting [6]); over 10 µM in assay [3] (setting [9]).
Regarding `C=CC(=O)N1CCC(N2CCN(C(=O)Nc3ccc(-c4cc5c(N6CCOCC6)ncnc5[nH]4)cc3)CC2)CC1` [Compound B0700-613, 4-(1-acryloylpiperidin-4-yl)-N-(4-(4-morpholino-7H-pyrrolo[2,3-d]pyrimidin-6-yl)phenyl)piperazine-1-carboxamide], the IC50 in assay [1] (setting [4]) stood at 0.632 µM; in assay [1] (setting [7]), 0.477 µM; in assay [2] (setting [5]) it was 0.495 µM; in assay [2] (setting [8]), 0.47 µM; in assay [3] (setting [6]) it was 6.04 µM; in assay [3] (setting [9]), 11.2 µM.
On to `C=CC(=O)N[C@@H]1CCCN(Cc2ccnc(C(=O)Nc3ccc(-c4cc5c(N6CCOCC6)nccc5[nH]4)cc3)c2)C1` [Compound B0700-614, (R)-4-((3-acrylamidopiperidin-1-yl)methyl)-N-(4-(4-morpholino-1H-pyrrolo[3,2-c]pyridin-2-yl)phenyl)picolinamide], for which the half-maximal inhibitory concentration (IC50) in assay [1] (setting [4]) is 0.923 µM; in assay [1] (setting [7]), 0.523 µM; in assay [2] (setting [5]), 0.696 µM; in assay [2] (setting [8]), 1.03 µM; in assay [3] (setting [6]), 0.554 µM; in assay [3] (setting [9]), 0.186 µM.
Consider `C=CC(=O)N1CCC(Nc2ccnc(C(=O)Nc3ccc(-c4cc5c(N6CCOCC6)ncnc5[nH]4)cc3)c2)CC1` [Compound B0700-616, 4-((1-acryloylpiperidin-4-yl)amino)-N-(4-(4-morpholino-7H-pyrrolo[2,3-d]pyrimidin-6-yl)phenyl)picolinamide], for which the IC50 in assay [1] (setting [4]) is 0.154 µM; in assay [1] (setting [7]) it was 0.157 µM; in assay [2] (setting [5]), 0.218 µM; in assay [2] (setting [8]), 0.17 µM; in assay [3] (setting [6]), 0.744 µM; in assay [3] (setting [9]), 0.636 µM.

The term IC50 denotes the concentration that inhibits the measured activity by half.
